Measured values: the supplement of paper PMC4862054
Values joined by “and” are separate entries in the source; they are usually repeats but may differ in a detail not shown here. Equal entries are not always repeated.

How the values were obtained:
Experiment in all cases: normalised viability (% of control), CellTiter-Blue; higher = more viable cells (about 100 = DMSO control)
Settings in all cases: incubation time: 72 h
[1] = system: DU-4475
Description: (§1)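 DSRT, CellTiter-Blue viability, 72 h incubation. Signal is normalised to DMSO and benzethonium chloride controls. Value is the normalised response at dose 8.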

[2] = system: CAL-85-1
Description: as §1

[3] = system: CAL-148
Description: as §1

[4] = system: CAL-51
Description: as §1

[5] = system: MDA-MB-453
Description: as §1

[6] = system: HDQ-P1
Description: as §1

[7] = system: DU-4475; remark: listed apart in the source
Description: (§2)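 DSRT, CellTiter-Blue viability, 72 h incubation. Signal is normalised to DMSO and benzethonium chloride controls. Value is the normalised response at dose 6.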

[8] = system: CAL-85-1; remark: listed apart in the source
Description: as §2

[9] = system: CAL-148; remark: listed apart in the source
Description: as §2

[10] = system: CAL-51; remark: listed apart in the source
Description: as §2

[11] = system: MDA-MB-453; remark: listed apart in the source
Description: as §2

[12] = system: HDQ-P1; remark: listed apart in the source
Description: as §2

[13] = system: DU-4475; remark: listed apart in the source
Description: (§3)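 DSRT, CellTiter-Blue viability, 72 h incubation. Signal is normalised to DMSO and benzethonium chloride controls. Value is the normalised response at dose 7.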

[14] = system: CAL-85-1; remark: listed apart in the source
Description: as §3

[15] = system: CAL-148; remark: listed apart in the source
Description: as §3

[16] = system: CAL-51; remark: listed apart in the source
Description: as §3

[17] = system: MDA-MB-453; remark: listed apart in the source
Description: as §3

[18] = system: HDQ-P1; remark: listed apart in the source
Description: as §3

Structure (SMILES) | normalised viability [7] | normalised viability [8] | normalised viability [9] | normalised viability [10] | normalised viability [11] | normalised viability [12] | also measured
Cc1c(N)nc([C@H](CC(N)=O)NC[C@H](N)C(N)=O)nc1C(=O)N[C@H](C(=O)N[C@H](C)[C@@H](O)[C@H](C)C(=O)N[C@H](C(=O)NCCc1nc(-c2nc(C(=O)NCCC[S+](C)C)cs2)cs1)[C@@H](C)O)[C@@H](OC1OC(CO)C(O)C(O)C1OC1OC(CO)C(O)C(OC(N)=O)C1O)c1cnc[nH]1 (stereo partly specified) [Bleomycin] (3000 nM) |  |  |  |  |  |  | normalised viability [1]: 107%; normalised viability [2]: 92.7%; normalised viability [3]: 88.2%; normalised viability [4]: 96.5%; normalised viability [5]: 101%; normalised viability [6]: 76.5%
Cc1cc2c(F)c(Oc3ncnn4cc(OC[C@@H](C)O)c(C)c34)ccc2[nH]1 [Brivanib] (30 nM) | 109% | 91.7% | 92.6% | 91.9% | 85.4% | 65.1% | 
Cc1cc2c(F)c(Oc3ncnn4cc(OC[C@@H](C)O)c(C)c34)ccc2[nH]1 [Brivanib] (300 nM) |  |  |  |  |  |  | normalised viability [1]: 98.9%; normalised viability [2]: 89.8%; normalised viability [3]: 98.5%; normalised viability [4]: 93.6%; normalised viability [5]: 99.1%; normalised viability [6]: 113%
CC(C)C[C@H](NC(=O)[C@H](CCc1ccccc1)NC(=O)CN1CCOCC1)C(=O)N[C@@H](Cc1ccccc1)C(=O)N[C@@H](CC(C)C)C(=O)[C@@]1(C)CO1 [Carfilzomib] (30 nM) | 8.97% | 9.23% | 40.8% | 32.1% | 19.8% | 1.01% | 
CC(C)C[C@H](NC(=O)[C@H](CCc1ccccc1)NC(=O)CN1CCOCC1)C(=O)N[C@@H](Cc1ccccc1)C(=O)N[C@@H](CC(C)C)C(=O)[C@@]1(C)CO1 [Carfilzomib] (300 nM) |  |  |  |  |  |  | normalised viability [1]: 1.31%; normalised viability [2]: 2.07%; normalised viability [3]: 1.83%; normalised viability [4]: 2.56%; normalised viability [5]: 18.1%; normalised viability [6]: 0.3%
Nc1nc(Cl)nc2c1ncn2[C@@H]1O[C@H](CO)[C@@H](O)[C@@H]1F [Clofarabine] (300 nM) | 77% | 65.1% | 68.7% | 81.9% | 82.9% | 70.1% | 
Nc1nc(Cl)nc2c1ncn2[C@@H]1O[C@H](CO)[C@@H](O)[C@@H]1F [Clofarabine] (3000 nM) |  |  |  |  |  |  | normalised viability [1]: 19.6%; normalised viability [2]: 54.5%; normalised viability [3]: 32.9%; normalised viability [4]: 15.4%; normalised viability [5]: 44.4%; normalised viability [6]: 95.6%
CCN(CC)CCOc1ccc(C(=C(Cl)c2ccccc2)c2ccccc2)cc1 [Clomifene] (300 nM) | 90.6% | 102% | 99.2% | 91.6% | 93.9% | 105% | 
CCN(CC)CCOc1ccc(C(=C(Cl)c2ccccc2)c2ccccc2)cc1 [Clomifene] (3000 nM) |  |  |  |  |  |  | normalised viability [1]: 92.4%; normalised viability [2]: 106%; normalised viability [3]: 93.3%; normalised viability [4]: 95.4%; normalised viability [5]: 82.8%; normalised viability [6]: 132%
C[C@@H]1C[C@H]2[C@@H]3CCC4=CC(=O)C=C[C@]4(C)[C@@]3(F)[C@@H](O)C[C@]2(C)[C@@]1(O)C(=O)CO [Dexamethasone] (300 nM) | 99% | 99.3% | 105% | 99.4% | 73.7% | 69.5% | 
C[C@@H]1C[C@H]2[C@@H]3CCC4=CC(=O)C=C[C@]4(C)[C@@]3(F)[C@@H](O)C[C@]2(C)[C@@]1(O)C(=O)CO [Dexamethasone] (3000 nM) |  |  |  |  |  |  | normalised viability [1]: 100%; normalised viability [2]: 115%; normalised viability [3]: 93.3%; normalised viability [4]: 106%; normalised viability [5]: 78.2%; normalised viability [6]: 112%
C[C@@H](CN1CC(=O)NC(=O)C1)N1CC(=O)NC(=O)C1 [Dexrazoxane] (300 nM) | 108% | 95.4% | 83.5% | 95% | 97.6% | 82.2% | 
C[C@@H](CN1CC(=O)NC(=O)C1)N1CC(=O)NC(=O)C1 [Dexrazoxane] (1000 nM) |  |  |  |  |  |  | normalised viability [13]: 83.6%; normalised viability [14]: 86.9%; normalised viability [15]: 102%; normalised viability [16]: 97.4%; normalised viability [17]: 97.8%; normalised viability [18]: 107%
C[C@@H](CN1CC(=O)NC(=O)C1)N1CC(=O)NC(=O)C1 [Dexrazoxane] (3000 nM) |  |  |  |  |  |  | normalised viability [1]: 92.8%; normalised viability [2]: 104%; normalised viability [3]: 96%; normalised viability [4]: 83.9%; normalised viability [5]: 87.5%; normalised viability [6]: 98.1%
CC(C)C(=O)Nc1ccc([N+](=O)[O-])c(C(F)(F)F)c1 [Flutamide] (300 nM) | 113% | 98.3% | 104% | 105% | 108% | 93.6% | 
CC(C)C(=O)Nc1ccc([N+](=O)[O-])c(C(F)(F)F)c1 [Flutamide] (3000 nM) |  |  |  |  |  |  | normalised viability [1]: 93.2%; normalised viability [2]: 94.9%; normalised viability [3]: 104%; normalised viability [4]: 110%; normalised viability [5]: 120%; normalised viability [6]: 98.8%
COc1cc2c(Oc3ccc(NC(=O)C4(C(=O)Nc5ccc(F)cc5)CC4)cc3F)ccnc2cc1OCCCN1CCOCC1 [Foretinib] (30 nM) | 84.3% | 89.2% | 95.1% | 93.3% | 94.1% | 59.1% | 
NC(=O)NO [Hydroxyurea] (3000 nM) | 91.3% | 110% | 108% | 103% | 109% | 91.3% | 

Structure (SMILES) | normalised viability [7] | normalised viability [8] | normalised viability [9] | normalised viability [10] | normalised viability [11] | normalised viability [12] | also measured
O=NN(CCCl)C(=O)NC1CCCCC1 [Lomustine] (300 nM) | 110% | 104% | 106% | 105% | 112% | 84.1% | 
O=C(O)CC[C@H]1CC[C@@](c2cc(F)ccc2F)(S(=O)(=O)c2ccc(Cl)cc2)CC1 [MK-0752] (30 nM) | 117% | 100% | 115% | 106% | 103% | 93% | 
NC1(c2ccc(-c3nc4ccn5c(=O)[nH]nc5c4cc3-c3ccccc3)cc2)CCC1 [MK-2206] (30 nM) | 103% | 96.2% | 97.4% | 101% | 99.4% | 69.6% | 
NC(=O)c1cccc2cn(-c3ccc([C@@H]4CCCNC4)cc3)nc12 [MK-4827] (300 nM) | 73.6% | 96.8% | 101% | 100% | 106% | 75.7% | 
N[C@@H](Cc1ccc(N(CCCl)CCCl)cc1)C(=O)O [Melphalan] (29.7 nM) | 102% | 88.3% | 98.7% | 104% | 110% | 81.1% | 
N[C@@H](Cc1ccc(N(CCCl)CCCl)cc1)C(=O)O [Melphalan] (99 nM) |  |  |  |  |  |  | normalised viability [13]: 86.2%; normalised viability [14]: 79.4%; normalised viability [15]: 106%; normalised viability [16]: 109%; normalised viability [17]: 101%; normalised viability [18]: 100%
Cc1c(C(=O)Nc2ccc(N3C[C@@H](C)O[C@@H](C)C3)nc2)cccc1-c1ccc(OC(F)(F)F)cc1 [NVP-LDE225] (300 nM) | 101% | 108% | 95.2% | 105% | 88.1% | 36.5% | 
Cc1c(C(=O)Nc2ccc(N3C[C@@H](C)O[C@@H](C)C3)nc2)cccc1-c1ccc(OC(F)(F)F)cc1 [NVP-LDE225] (1000 nM) |  |  |  |  |  |  | normalised viability [13]: 118%; normalised viability [14]: 98.8%; normalised viability [15]: 107%; normalised viability [16]: 99.5%; normalised viability [17]: 92.9%; normalised viability [18]: 90.1%
O=C(c1cc(Cc2n[nH]c(=O)c3ccccc23)ccc1F)N1CCN(C(=O)C2CC2)CC1 [Olaparib] (300 nM) | 83.2% | 92.2% | 85.3% | 93.2% | 98% | 73.9% | 
CO[C@H](C(=O)[C@@H](O)[C@@H](C)O)[C@@H]1Cc2cc3cc(O[C@H]4C[C@@H](O[C@@H]5C[C@@H](O)[C@H](O)[C@@H](C)O5)[C@H](O)[C@@H](C)O4)c(C)c(O)c3c(O)c2C(=O)[C@H]1O[C@H]1C[C@@H](O[C@@H]2C[C@@H](O)[C@@H](O[C@@H]3C[C@](C)(O)[C@H](O)[C@@H](C)O3)[C@@H](C)O2)[C@H](O)[C@@H](C)O1 [Plicamycin] (300 nM) | 0.65% and -0.39% | 13% and 11.5% | 2.94% and 7.64% | 18.3% and 13.9% | 17.4% and 13.2% | 32.7% and 20.9% | 
C[C@]12C=CC(=O)C=C1CC[C@@H]1[C@@H]2C(=O)C[C@@]2(C)[C@H]1CC[C@]2(O)C(=O)CO [Prednisone] (300 nM) | 108% | 102% | 102% | 104% | 91.8% | 50.2% | 
CO[C@H]1C[C@@H]2CC[C@@H](C)[C@@](O)(O2)C(=O)C(=O)N2CCCC[C@H]2C(=O)O[C@H]([C@H](C)C[C@@H]2CC[C@@H](O)[C@H](OC)C2)CC(=O)[C@H](C)/C=C(\C)[C@@H](O)[C@@H](OC)C(=O)[C@H](C)C[C@H](C)/C=C/C=C/C=C/1C [Sirolimus] (30 nM) | 48.5% | 56.1% | 46.8% | 29.3% | 29% | 60.8% | 
CN1CCN(c2nc(C3=C(c4c[nH]c5ccccc45)C(=O)NC3=O)c3ccccc3n2)CC1 [Sotrastaurin] (300 nM) | 99.9% | 117% | 120% | 87% | 96.2% | 56.9% | 
CC/C(=C(\c1ccccc1)c1ccc(OCCN(C)C)cc1)c1ccccc1 [Tamoxifen] (300 nM) | 113% | 106% | 112% | 89.5% | 97.8% | 93.8% | 
COc1cc2c(N3CCN(C(=O)Nc4ccc(OC(C)C)cc4)CC3)ncnc2cc1OCCCN1CCCCC1 [Tandutinib] (30 nM) | 96.3% | 110% | 103% | 106% | 108% | 70.4% | 
C[C@@H](C(=O)O)c1ccc(-c2ccccc2)c(F)c1 [Tarenflurbil] (300 nM) | 89.8% | 101% | 93.6% | 117% | 104% | 64.5% | 
Cn1nnc2c(C(N)=O)ncn2c1=O [Temozolomide] (300 nM) | 116% | 104% | 89.2% | 88.4% | 93.8% | 72.5% | 
CC[C@@H]1C(=O)N(C)c2cnc(Nc3ccc(C(=O)N[C@H]4CC[C@H](N5CCN(CC6CC6)CC5)CC4)cc3OC)nc2N1C(C)C [Volasertib] (30 nM) | 58.8% | 45.9% | 25.4% | 40.5% | 31.5% | 49.7% | 
